Reference: PubChem BioAssay AID1626 (SRMLSC, 2009)

System: M. tuberculosis H37Rv growth inhibition
Assay: M. tuberculosis H37Rv growth inhibitors, H37Rv strain (AID 1626)
Conditions: for IC90: measured here: IC90 against H37Rv; for CC50: measured here: Vero cell cytotoxicity

SMILES | IC50 | IC90 | CC50
Cc1nc(N)nc(N)c1/C=C/C(C)(C)c1ccc(Cl)cc1 | 0.562 µM | 1.29 µM | < 0.078 µM
COCCn1nnnc1C(c1cc2cc(OC)ccc2[nH]c1=O)N1CCC(Cc2ccccc2)CC1 (stereo not drawn) | 7.52 µM | 15.8 µM | –
O=C(COC(=O)c1ccc(-c2ccc([N+](=O)[O-])cc2)o1)NC(=O)NC12CC3CC(CC(C3)C1)C2 | 10.3 µM | > 100 µM | –
CCc1ccc(CCC(=O)Nc2ccc(C)c(C)c2)o1 | 14.8 µM | > 100 µM | –
CC1CC(C)(C)Nc2ccc(OC(=O)c3ccco3)cc21 (stereo not drawn) | 15.9 µM | 22.2 µM | > 40 µM
CCOC(=O)c1sc2nc(C)[nH]c(=S)c2c1C | 39.1 µM | > 100 µM | –
CCOC(=O)c1cnc(-n2nc(C)cc2C)nc1NC1CCCC1 | 0.755 µM | 0.859 µM | 15.2 µM
Cc1cc([N+](=O)[O-])ccc1NC(=O)CN1C2CCC1CC(NC(=O)NC13CC4CC(CC(C4)C1)C3)C2 (stereo not drawn) | 3.02 µM | 5.59 µM | > 40 µM
CCCc1cc(C(=O)Nc2nccs2)cs1 | 17.7 µM | > 100 µM | –
COc1ccc(CNC(=O)c2c(C)nc3ccccn23)cc1 | 1.77 µM | 7.63 µM | –
O=C(Nc1nnc(C2=COCCO2)o1)c1ccc(Cl)cc1 | 2.71 µM | 4.41 µM | > 40 µM
Cc1ccc(CN2CCSc3ccc(C(=O)NC4CCN(Cc5ccccc5)CC4)cc32)cc1 | – | – | 18.4 µM
C#CCOCCOCCOCCNc1nc(N2CCN(C(=O)[C@H](Cc3ccc(O)cc3)n3cc([C@@H](N)CC(C)C)nn3)CC2)nc(N2CCN(C(=O)[C@H](Cc3cc4ccccc4[nH]3)n3cc([C@@H](N)CC(C)C)nn3)CC2)n1 | 11.7 µM | 16.7 µM | –
COc1cc(OC)c(-c2nn3c(C4CCCCC4)nnc3s2)cc1OC | 2.2 µM | 6.47 µM | –
O=C(O)C1CCCCC1C(=O)Nc1ccc2c(c1)CCC2 (stereo not drawn) | 73.5 µM | > 100 µM | –
CCOc1ccc(N=CC2=C(O)CC(C)(C)CC2=O)cc1 | – | > 100 µM | –
O=C(c1cnc(N2CCN(c3ccccn3)CC2)c2ccccc12)N1CCN(c2cccc(Cl)c2)CC1 | 8.67 µM | > 100 µM | > 40 µM
N#Cc1ccc(C(=O)Nc2nnc(-c3ccco3)o2)cc1 | 7.95 µM | > 100 µM | > 40 µM
CC(NC(=O)c1ccc([N+](=O)[O-])cc1[N+](=O)[O-])c1ccc(-c2ccccc2)cc1 (stereo not drawn) | 2.51 µM | > 100 µM | > 40 µM
CC(C)c1ccc(Nc2nnc(SCC(=O)Nc3ncc(S(=O)(=O)c4ccc([N+](=O)[O-])cc4)s3)s2)cc1 | 5.63 µM | 7.98 µM | –
CCOC(=O)COc1ccc2c(=O)c(-c3ccc(OC)c(OC)c3)c(C(=O)OCC)oc2c1 | 2.51 µM | 5.68 µM | –

SMILES | IC50 | IC90 | CC50
CCCC(=O)OCCNc1cc(Sc2nc3ccccc3[nH]2)c2nonc2c1[N+](=O)[O-] | 68.1 µM | > 100 µM | 23.5 µM
Cc1ccc(NC(=O)COC(=O)C2=COCCO2)c([N+](=O)[O-])c1 | 6.3 µM | > 100 µM | –
Cc1sc(-n2c(C)cc(/C=N/n3cnnc3)c2C)c(C#N)c1C | – | – | > 40 µM
CC(C)OC(=O)c1ccc(NC(=O)c2cncc(Br)c2)cc1 | – | > 100 µM | –
O=C(OCC(=O)c1c[nH]c2ccccc12)c1cc2ccccc2cc1O | 11.3 µM | > 100 µM | > 40 µM
CCCCOC(=O)c1ccc(NC(=O)C(=O)NCCN(C)C)cc1 | 14.9 µM | > 100 µM | –
Fc1cccc(-c2cc3nc(-c4ccccc4)cc(N4CCC5(CC4)OCCO5)n3n2)c1 | – | > 100 µM | –
CCOC(=O)CSc1nc(N)c(C#N)c(-c2cccs2)c1C#N | 1.59 µM | 3.27 µM | –
COc1cc(NC(=O)c2ccc(Cl)cc2)c(OC)cc1NC(=O)CN1CCCCC1 | 8.74 µM | 16.9 µM | –
CC(=O)/C=C/c1ccc2ccccc2n1 | 5.65 µM | 6.34 µM | 16.1 µM
CN1Cc2c(N3CCOCC3)nc3sc(C(=O)c4ccc(Br)cc4)c(N)c3c2CC1(C)C | 5.56 µM | 6.26 µM | 10.2 µM
CC(=O)C1=C(C)NC(SCC(=O)c2ccc(F)cc2)=C(C#N)C1c1ccco1 (stereo not drawn) | 11.7 µM | 21.1 µM | > 40 µM
COCc1cc(S(=O)c2ccc(Cl)cc2)nc(C)n1 (stereo not drawn) | 15.1 µM | 24.3 µM | 22.1 µM
CC(C)(C)Nc1nc(NC(C)(C)C)nc(-n2ccnc2)n1 | 11.4 µM | 13.1 µM | –
Cc1[nH]n2c(=O)c3c(nc2c1-c1ccc(Cl)cc1)CCC3 | 13.3 µM | 31 µM | 19.6 µM
COc1cc(CC(=O)Nc2ccc3nc(SC)sc3c2)cc(OC)c1OC | 11.3 µM | 16.1 µM | –
CC(C)N=c1cc2n(-c3ccc(Cl)cc3)c3ccccc3nc-2cc1Nc1ccc(Cl)cc1 | < 0.391 µM | < 0.391 µM | > 40 µM
COc1ccc(C2CC(=O)N3CN(c4ccc(C)c(Cl)c4)CSC3=C2C#N)cc1OC (stereo not drawn) | – | > 100 µM | –
CC(C)Cc1cc(C(=O)Nc2cc(Br)ccc2O)no1 | 3.9 µM | > 100 µM | 26.5 µM
CCOc1ccc(N2C(=O)c3ccc(C(=O)OCC(=O)N(CC)C4CCS(=O)(=O)C4)cc3C2=O)cc1 (stereo not drawn) | – | > 100 µM | –
O=C(COC(=O)c1sc2ccccc2c1Cl)NC1CCCCC1 | 12.7 µM | > 100 µM | > 40 µM

SMILES | IC50 | IC90 | CC50
O=C(O)c1cn(-c2ccc(N3CCCC3)c(F)c2)c2c(F)c(F)c(F)cc2c1=O | 4.59 µM | 9.57 µM | > 40 µM
Cc1cc(-c2ccc(/C=N/n3cnnc3)o2)ccc1Cl | – | > 100 µM | –
CSc1nc2nc(C)c(C/C=C/c3ccccc3)c(=O)n2[nH]1 | 11.4 µM | > 100 µM | –
CCOC(=O)c1ccc(NC(=O)CCC2COc3ccccc3O2)cc1 (stereo not drawn) | 3.3 µM | > 100 µM | –
Cc1ccc(NC(=O)N2CCC(c3nc4c(nnn4Cc4cccc(Cl)c4)c(=O)[nH]3)CC2)cc1 | 5.13 µM | 6.62 µM | –
Cc1ccc(NC(NC(=O)c2cccs2)C(Cl)(Cl)Cl)cc1C (stereo not drawn) | 24.3 µM | > 100 µM | > 40 µM
Cc1cccc(OCC(O)Cn2c(=N)n(CCN3CCCCC3)c3ccccc32)c1 (stereo not drawn) | 5.87 µM | 6.69 µM | 35.8 µM
COc1ccc(NC(=O)CSc2ncn(-c3ccccc3)n2)cc1Cl | – | > 100 µM | –
Cc1ccc(-n2cc(C(=O)c3ccc(N4CCN(C)CC4)cc3)nn2)cc1Cl | < 0.391 µM | 4.59 µM | 12 µM
NC1=NC[C@H](CC2CCCCC2)N1CCc1cc(C(F)(F)F)cc(C(F)(F)F)c1 | 8.62 µM | 11 µM | 27.4 µM
CCCCCc1cc(=O)oc2c(C(CCN(CC)CC)c3ccc(N(C)C)cc3)c(OC)cc(OC)c12 (stereo not drawn) | 4.06 µM | 5.28 µM | 14.9 µM
CCOc1ccc2nc(NC(=O)CSc3nc(SC)ns3)sc2c1 | 2.95 µM | > 100 µM | > 40 µM
CCOC(=O)C(C)Sc1ncnc2c1nnn2-c1ccc(F)cc1 (stereo not drawn) | 2.47 µM | 21.6 µM | –
N=C1S/C(=C\c2ccc(-c3cccc(Cl)c3)o2)C(=O)N1c1nccs1 | < 0.195 µM | 13.9 µM | 5.77 µM
CCNc1nc(NCC)nc(-n2nc(C)cc2C)n1 | 5.04 µM | 18.4 µM | –
CCOC(=O)N1CCN(C(=O)CSc2nnc(-c3cc(OC)cc(OC)c3)o2)CC1 | 2.82 µM | 7.03 µM | –
CCCCn1c(=O)c(C(=O)Nc2cnccn2)c(O)c2ccccc21 | 5.79 µM | 6.45 µM | 18.2 µM
COc1ccc(N=C(NN)c2ccc3ccccc3n2)cc1 | 54.6 µM | > 100 µM | –
CNC1=C(N(C(C)=O)c2ccc(Br)cc2)C(=O)c2ccccc2C1=O | 0.654 µM | 2.54 µM | 10 µM
CCOC(=O)CSc1nc(N)c(C#N)c(CC(C)C)c1C#N | 1.44 µM | 8.77 µM | –
O=C(Nc1ccc(-c2csnn2)cc1)C1CC1 | – | > 100 µM | –

SMILES | IC50 | IC90 | CC50
O=C(Nc1ccc(C2=NCCN2)cc1)c1ccc(Cl)c(C(=O)Nc2ccc(C3=NCCN3)cc2)c1 | 7.69 µM | 16.9 µM | –
CCOC(=O)c1ccc(N=C(C)c2c(O)[nH]c(=O)[nH]c2=O)cc1 | – | > 100 µM | –
CC(NC(=O)c1ccc(Br)cc1)c1ccc2c(c1)CCCC2 (stereo not drawn) | 15.4 µM | > 100 µM | –
CCOC(=O)COc1ccc2c(=O)c(-c3ccccc3OC)coc2c1 | 1.06 µM | 2.45 µM | –
O=C(NCCCN1CCOCC1)c1ccc([N+](=O)[O-])cc1[N+](=O)[O-] | 6.25 µM | > 100 µM | –
O=C(Nc1ccc(-c2csnn2)cc1)C(Cl)(Cl)Cl | < 0.195 µM | > 100 µM | –
Cc1nc(N2CCN(c3ccccn3)CC2)c2c(C)c(C(=O)Nc3ccccc3F)sc2n1 | 8.96 µM | > 100 µM | > 40 µM
COc1cnc(-c2ccccn2)nc1Sc1ccc(F)cc1 | < 0.195 µM | 12.9 µM | 19.2 µM
COc1c(Cl)cc(Cl)cc1/C=C/C(=O)c1ccc(NC(=O)c2cccs2)cc1 | 7.91 µM | 16.4 µM | 6.47 µM
O=C(/C=C/c1cccs1)Nc1cccc(NC(=O)/C=C/c2cccs2)n1 | 10.4 µM | > 100 µM | 28 µM
COc1ccc(NC2(c3ccc(Cl)cc3)C(=O)c3ccccc3C2=O)cc1 | – | > 100 µM | –
Cc1ccc(NC(=O)/C=C/c2ccc([N+](=O)[O-])s2)cc1 | 45.9 µM | > 100 µM | > 40 µM
CCc1ccc(/C=C/C(=O)C2C(=O)c3ccccc3C2=O)cc1 | 1.76 µM | 2.92 µM | > 40 µM
O=[N+]([O-])c1cc(/C=N/N/C(=N/c2ccccn2)c2ccccn2)ccc1O | 17.9 µM | > 100 µM | 26.8 µM
Cc1[nH]n(-c2ccccc2)c(=S)c1C=NCCCN=Cc1c(C)[nH]n(-c2ccccc2)c1=S | < 0.391 µM | > 100 µM | –
C(=C\c1nccc2c1[nH]c1ccccc12)/c1ccccc1 | 8.41 µM | 11.3 µM | 29.4 µM
Cc1ccc(Cc2cnc(N3C(=N)SC(C)C3=O)s2)cc1 (stereo not drawn) | 3.58 µM | 18.1 µM | > 40 µM
Cc1ccc(Sc2cc(C)nc(-c3ccccn3)n2)cc1 | 2.26 µM | 15.7 µM | 10.8 µM
